Reference: patent US20050096392A1, “Use of creatine pyruvate for increasing stamina during highly intensive intermittent physical exertion” (priority 2002, published 2005)

Tests used:
[1] = Double-blind study, anthropometric data; type: in vivo, human
Description: In a double-blind study, creatine pyruvate (A) and placebo (B) were tested. The male experimental subjects (n=32; age: 18 to 32) were divided into groups, each of n=16, so that the maximum oxygen consumption per kilogram of body weight was on average the same in the groups, and the types of sport undertaken were usually distributed the same as far as possible. This led to the fact that the mean strength in the intermittent studies was not the same. The test subjects of group A were administered 5.0 g of creatine pyruvate per day over a period of 28 days. The initial test (IT) was carried out on the 1st day, and the closing test (CT) on the 29th day. In the morning between 8 and 11 o'clock fasted blood sampling, record of anthropometric data; standardized breakfast; then intermittent test of the lower arm musculature. […] The circumference of the thickest part of the lower arm increased in group A (p<0.005).

[2] = set-up: species or system human; conditions: in vivo
Description: (§1) In a double-blind study, creatine pyruvate (A) and placebo (B) were tested. The male experimental subjects (n=32; age: 18 to 32) were divided into groups, each of n=16, so that the maximum oxygen consumption per kilogram of body weight was on average the same in the groups, and the types of sport undertaken were usually distributed the same as far as possible. This led to the fact that the mean strength in the intermittent studies was not the same. The test subjects of group A were administered 5.0 g of creatine pyruvate per day over a period of 28 days. The initial test (IT) was carried out on the 1st day, and the closing test (CT) on the 29th day. In the morning between 8 and 11 o'clock fasted blood sampling, record of anthropometric data; standardized breakfast; then intermittent test of the lower arm musculature.

lower arm musculature [3] = experiment: Intermittent test with the lower arm musculature, mechanical parameters; type: in vivo, human
Description: as §1, with “day.” for “day. In the morning between 8 and 11 o'clock fasted blood sampling, record of anthropometric data; standardized breakfast; then intermittent test of the lower arm musculature.”
(§2) The arm of the seated test subjects is positioned extended (horizontally) at the side at shoulder height. The hand lies on an adjustable-weight gripper (stroke length: 3 cm). The arm is supported at the elbow. The test subjects must perform highly intensive intermittent work, for which they compress the adjustable-weight gripper at the maximum possible frequency. The weight in the basket is 80% of the maximum weight achieved in a preliminary test in which the load, starting at 7.5 kg, is increased by 2.5 kg every 3 minutes. The contraction frequency is 24/min. The maximum weight is reached when the 3 cm stroke length can no longer be overcome. Blood is taken from the cubital vein on the working arm. The skin blood flow is reduced by cooling. Blood was taken in each case before and after the 1st, 2nd, 6th, 9th and 10th period.
Via an inductive distance measurer on the adjustable-weight gripper, the stroke length of the weight basket was measured. From the signal, 4 measurements can be obtained. • 1. Contraction rate • 2. Stroke length • 3. Duration of the total contraction • 4. Integral of stroke length over time
The force is the mean force during the shortening phase, not the point-measurement maximum force. It is only the force which was developed additionally to the force necessary to overcome the force of gravity. In addition, the relaxation rate and the contraction frequency were determined. The evaluation was started with the fourth contraction. Thereafter, each contraction was evaluated over 12 seconds. The mechanical parameters were determined in the 1st, 2nd, 6th and 9th interval.

lower arm musculature [4] = experiment: Intermittent test with the lower arm musculature, blood tests and acid-base status; type: in vivo, human
Description: as §1, with “day.” for “day. In the morning between 8 and 11 o'clock fasted blood sampling, record of anthropometric data; standardized breakfast; then intermittent test of the lower arm musculature.”
as §2, with “Blood was taken in each case before and after the 1st, 2nd, 6th, 9th and 10th period.” left out

[5] = closing test, day 29, after 5.0 g per day over 28 days
[6] = initial vs closing test, 5.0 g per day over 28 days
[7] = initial vs closing test, p<0.005
[8] = administration of creatine pyruvate
[9] = highly intensive intermittent work, 80% of maximum weight, analysis of variance, p<0.01

creatine pyruvate
BIA fat measurement, CT mean [1, 5]: 16.63 kg
BIA water measurement, CT mean [1, 5]: 47.39 kg
Body fat (skinfold), CT mean [1, 5]: 11.59%
Body weight, CT mean [1, 5]: 83.20 kg
Circumference of lower elbow, CT mean [1, 5]: 29.62 cm
Circumference of thickest point of the arm, CT mean [1, 5]: 29.67 cm
BIA fat measurement, IT mean ([1]; initial test, day 1): 16.69 kg
BIA water measurement, IT mean ([1]; initial test, day 1): 46.64 kg
Body fat (skinfold), IT mean ([1]; initial test, day 1): 11.33%
Circumference of lower elbow, IT mean ([1]; initial test, day 1): 28.94 cm
Circumference of thickest point of the arm, IT mean ([1]; initial test, day 1): 29.01 cm
Body weight, IT mean ([1]; initial test, day 1, group A, 5.0 g per day over 28 days): 81.70 kg
Change of body fat content (skinfold thickness and BIA) [1, 6]: no change in body fat content
Change of body weight [1, 6]: increased significantly
Change of body fat content (skinfold thickness and BIA) ([1]; initial vs closing test, 5.0 g per day over 28 days, listed as A): remained the same
Change of body H2O ([1]; initial vs closing test, one-sided test, p<0.05): increases in body H2O were significant
Change of circumference at the epicondyles [1, 7]: The same applied
Change of circumference of the thickest part of the lower arm [1, 7]: increased
Change of HB [2]: not different
Change of Hct [2]: not different
Change of LDL cholesterol [2]: just above the level of significance
Change of leukocyte number [2]: no difference
Change of number of erythrocytes [2]: decreased significantly
Change of uric acid concentration [2]: significant decrease
Creatinine, CT mean [2]: 1.19
Creatinine, IT mean [2]: 1.07 mg/dL
Effect on fat metabolism at rest [2]: no effect
Effects on kidney and liver function and fat metabolism parameters [2]: no adverse effects
Erythrocytes, CT mean [2]: 4.96
Erythrocytes, IT mean [2]: 5.3 10^6/µL
Hb, CT mean [2]: 15.4 g/dL
Hb, IT mean [2]: 15.56
Hct, CT mean [2]: 45.13
Hct, IT mean [2]: 45.5%
Leukocytes, CT mean [2]: 9386.67
Leukocytes, IT mean [2]: 8980 µL⁻¹
PT, CT mean [2]: 6.20
PT, IT mean [2]: 5.40
Urea, CT mean [2]: 30.00
Urea, IT mean [2]: 34.07
Uric acid, CT mean [2]: 5.29 mg/dL
Uric acid, IT mean [2]: 5.64 mg/dL
Muscle fatigue under highly intensive intermittent exertion (lower arm musculature [3]; [8]): significant reduction in muscle fatigue
Relaxation rate (lower arm musculature [3]; highly intensive intermittent work, 80% of maximum weight): showed a tendency to increase
Power calculated from the shortening rate (lower arm musculature [3]; highly intensive intermittent work, 80% of maximum weight, analysis of variance, p<0.005): increased in all intervals
Contraction frequency (lower arm musculature [3]; [9]): increased in all intervals
Force (lower arm musculature [3]; [9]): increased in all intervals
Performance in highly intensive exertion (lower arm musculature [3]; short exertion and final intervals): significant increase in performance
Overacidification of muscle tissue in highly intensive intermittent exertion (lower arm musculature [4]; [8]): does not occur, or only occurs to a very slight extent
Rise of maximum values during exertion (parameter not named at the place) (lower arm musculature [4]; t test for paired random samples, p<0.002): significantly lower rise
